Source: ChEMBL document CHEMBL1909046, “DrugMatrix in vitro pharmacology data”

What was measured:
[1] = DRUGMATRIX: Imidazoline I2, Central radioligand binding (ligand: [3H] Idazoxan); type: cell membranes, Rattus norvegicus, Wistar, Cerebral cortex, Membrane; settings: Not Active = under 50% inhibition at 10 µM
[2] = target: T1, Nitric oxide synthase, inducible (Mus musculus, UniProt P29477); design: species or system Escherichia coli;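 further: inhibition of iNOS enzyme activity measured with L-arginine as substrate; in other assays of this panel Not Active means under 50% inhibition at 10 µM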
T1 sequence (P29477 whole entry): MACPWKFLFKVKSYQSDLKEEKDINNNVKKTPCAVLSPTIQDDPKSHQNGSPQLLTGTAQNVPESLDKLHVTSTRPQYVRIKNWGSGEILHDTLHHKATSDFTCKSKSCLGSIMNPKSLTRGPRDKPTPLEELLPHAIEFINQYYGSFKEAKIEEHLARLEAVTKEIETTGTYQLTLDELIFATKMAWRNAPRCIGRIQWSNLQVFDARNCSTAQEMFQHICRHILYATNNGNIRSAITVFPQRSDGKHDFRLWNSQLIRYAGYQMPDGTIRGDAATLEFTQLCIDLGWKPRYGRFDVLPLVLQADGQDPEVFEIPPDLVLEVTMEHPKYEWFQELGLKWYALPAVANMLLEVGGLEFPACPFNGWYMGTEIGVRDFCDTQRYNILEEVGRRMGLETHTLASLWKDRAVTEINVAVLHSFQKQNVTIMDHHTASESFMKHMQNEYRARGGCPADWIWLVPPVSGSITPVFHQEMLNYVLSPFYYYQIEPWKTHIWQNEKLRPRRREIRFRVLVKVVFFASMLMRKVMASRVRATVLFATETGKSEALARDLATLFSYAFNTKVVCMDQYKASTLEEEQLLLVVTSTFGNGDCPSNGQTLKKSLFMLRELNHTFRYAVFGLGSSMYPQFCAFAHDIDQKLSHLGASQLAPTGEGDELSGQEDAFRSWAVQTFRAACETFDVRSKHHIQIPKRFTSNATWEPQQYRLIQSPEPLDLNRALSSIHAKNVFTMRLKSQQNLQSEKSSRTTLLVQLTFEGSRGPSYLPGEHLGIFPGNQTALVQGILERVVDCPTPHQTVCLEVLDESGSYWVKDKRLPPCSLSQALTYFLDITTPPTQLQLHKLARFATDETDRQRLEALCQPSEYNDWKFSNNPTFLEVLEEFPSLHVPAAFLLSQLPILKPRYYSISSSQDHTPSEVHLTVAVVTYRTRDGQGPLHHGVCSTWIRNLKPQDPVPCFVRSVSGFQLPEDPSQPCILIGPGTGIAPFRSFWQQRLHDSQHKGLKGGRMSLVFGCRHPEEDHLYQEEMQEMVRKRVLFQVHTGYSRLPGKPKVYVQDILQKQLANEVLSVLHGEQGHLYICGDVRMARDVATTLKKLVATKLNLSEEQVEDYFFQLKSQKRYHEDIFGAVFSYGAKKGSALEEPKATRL

[3] = DRUGMATRIX: Nicotinic Acetylcholine radioligand binding (ligand: [125I] Epibatidine); type: cell membranes, Membrane; settings: imr-32; Not Active = under 50% inhibition at 10 µM
[4] = target: Aldo-keto reductase family 1 member B1 (Rattus norvegicus, UniProt P07943); test: biochemical; type: tissue-based, Lens of camera-type eye;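 further: inhibition of aldose reductase enzyme activity, measured with DL-glyceraldehyde as the substrate; in other assays of this panel Not Active means under 50% inhibition at 10 µM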
[5] = DRUGMATRIX: Purinergic P2X radioligand binding (ligand: [3H] alpha, beta-Methylene-ATP); type: cell membranes, Oryctolagus cuniculus, New Zealand albino, Urinary bladder, Membrane; settings: Not Active = under 50% inhibition at 10 µM
[6] = target: cGMP-specific 3',5'-cyclic phosphodiesterase (Homo sapiens, UniProt O76074); test: DRUGMATRIX: Phosphodiesterase PDE5 enzyme inhibition (substrate: [3H]cGMP + cGMP); type: tissue-based, Platelet; settings: Not Active = under 50% inhibition at 10 µM
[7] = target: Nitric oxide synthase 1 (Rattus norvegicus, UniProt P29476); type: tissue-based, Cerebellum; further: in other assays of this panel Not Active means under 50% inhibition at 10 µM
Chain of Nitric oxide synthase 1 (P29476 whole entry): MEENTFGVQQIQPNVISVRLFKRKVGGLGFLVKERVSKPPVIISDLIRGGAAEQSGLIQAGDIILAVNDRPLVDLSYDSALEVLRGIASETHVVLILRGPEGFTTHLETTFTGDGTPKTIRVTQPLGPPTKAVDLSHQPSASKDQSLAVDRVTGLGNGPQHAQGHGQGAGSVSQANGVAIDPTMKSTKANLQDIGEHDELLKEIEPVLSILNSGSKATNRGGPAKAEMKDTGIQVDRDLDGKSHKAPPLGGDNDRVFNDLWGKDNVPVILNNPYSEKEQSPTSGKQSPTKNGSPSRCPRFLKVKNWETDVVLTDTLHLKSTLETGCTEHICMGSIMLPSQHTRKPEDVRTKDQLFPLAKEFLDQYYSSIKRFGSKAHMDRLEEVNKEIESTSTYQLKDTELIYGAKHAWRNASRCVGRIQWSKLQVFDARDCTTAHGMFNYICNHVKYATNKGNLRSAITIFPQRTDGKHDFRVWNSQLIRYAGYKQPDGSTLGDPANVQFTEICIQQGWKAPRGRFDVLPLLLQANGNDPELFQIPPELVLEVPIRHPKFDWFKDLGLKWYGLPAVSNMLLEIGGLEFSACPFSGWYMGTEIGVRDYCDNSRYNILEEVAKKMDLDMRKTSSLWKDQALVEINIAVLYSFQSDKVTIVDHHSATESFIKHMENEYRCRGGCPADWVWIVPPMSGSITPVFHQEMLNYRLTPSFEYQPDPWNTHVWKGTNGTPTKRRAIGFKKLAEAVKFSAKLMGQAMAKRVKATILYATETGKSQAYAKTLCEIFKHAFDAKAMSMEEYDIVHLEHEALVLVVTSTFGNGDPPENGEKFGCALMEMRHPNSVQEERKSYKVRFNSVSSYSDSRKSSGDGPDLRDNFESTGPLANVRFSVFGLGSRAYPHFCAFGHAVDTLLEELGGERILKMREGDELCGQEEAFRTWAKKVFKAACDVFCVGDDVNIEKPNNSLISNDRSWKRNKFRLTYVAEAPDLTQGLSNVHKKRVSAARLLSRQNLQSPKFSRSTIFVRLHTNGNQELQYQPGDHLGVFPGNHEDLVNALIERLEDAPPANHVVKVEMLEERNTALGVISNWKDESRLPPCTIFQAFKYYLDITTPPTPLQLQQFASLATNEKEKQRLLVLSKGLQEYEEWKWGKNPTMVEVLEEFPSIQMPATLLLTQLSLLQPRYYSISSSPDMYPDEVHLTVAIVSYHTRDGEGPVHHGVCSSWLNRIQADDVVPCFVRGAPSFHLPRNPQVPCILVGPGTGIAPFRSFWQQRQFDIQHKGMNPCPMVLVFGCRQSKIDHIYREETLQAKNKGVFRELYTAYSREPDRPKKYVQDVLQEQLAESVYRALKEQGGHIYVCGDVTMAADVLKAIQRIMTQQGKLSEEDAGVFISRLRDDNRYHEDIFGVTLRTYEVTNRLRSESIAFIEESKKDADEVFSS

SMILES | IC50 [1] | Ki [1] | IC50 [2] | IC50 [3] | Ki [3] | IC50 [4] | IC50 [5] | Ki [5] | IC50 ([6]; platelet) | IC50 [7] | IC50 ([1]; read-out: IC50) [nM] | Ki ([1]; read-out: Ki) [nM] | IC50 ([4]; read-out: IC50) [nM] | IC50 ([6]; read-out: IC50) [nM]
CC[C@H](C)C(=O)O[C@H]1CCC=C2C=C[C@H](C)[C@H](CC[C@@H]3C[C@@H](O)CC(=O)O3)[C@H]21 [MEVASTATIN] | Not Active | Not Active | Not Active | Not Active | Not Active | Not Active | Not Active | Not Active | Not Active | Not Active |  |  |  | 
C[C@]12CCC(=O)C[C@@H]1CC[C@@H]1[C@@H]2CC[C@]2(C)[C@@H](O)CC[C@@H]12 [STANOLONE] | Not Active | Not Active | Not Active | Not Active | Not Active | Not Active | Not Active | Not Active | Not Active | Not Active |  |  |  | 
CC(N)C12CC3CC(CC(C3)C1)C2 (stereo not given) [RIMANTADINE] | Not Active | Not Active | Not Active | Not Active | Not Active | Not Active | Not Active | Not Active | Not Active | Not Active |  |  |  | 
Cc1cccc(C)c1NC(=O)C(C)N (stereo not given) [TOCAINIDE] | Not Active | Not Active | Not Active | Not Active | Not Active | Not Active | Not Active | Not Active | Not Active | Not Active |  |  |  | 
CCN(CC)N=O [N-NITROSODIETHYLAMINE] | Not Active | Not Active | Not Active | Not Active | Not Active | Not Active | Not Active | Not Active | Not Active | Not Active |  |  |  | 
CCC(C)(C)C(=O)O[C@H]1C[C@@H](C)C=C2C=C[C@H](C)[C@H](CC[C@@H]3C[C@@H](O)CC(=O)O3)[C@H]21 [SIMVASTATIN] | Not Active | Not Active | Not Active | Not Active | Not Active | Not Active | Not Active | Not Active | Not Active | Not Active |  |  |  | 
CN1C[C@H](CNC(=O)OCc2ccccc2)C[C@@H]2c3cccc4c3c(cn4C)C[C@H]21 [METERGOLINE] |  |  | Not Active | Not Active | Not Active | Not Active | Not Active | Not Active | Not Active | Not Active | 1920 | 1280 |  | 
CCN(CC)CCNC(=O)c1cc(Cl)c(N)cc1OC [METOCLOPRAMIDE] |  |  | Not Active | Not Active | Not Active | Not Active | Not Active | Not Active | Not Active | Not Active | 708 | 472 |  | 
Cc1ccc(Cl)c(Nc2ccccc2C(=O)O)c1Cl [MECLOFENAMIC ACID] | Not Active | Not Active | Not Active | Not Active | Not Active | Not Active | Not Active | Not Active | Not Active | Not Active |  |  |  | 
CO[C@@]12[C@H](COC(N)=O)C3=C(C(=O)C(C)=C(N)C3=O)N1C[C@@H]1N[C@@H]12 [MITOMYCIN] | Not Active | Not Active | Not Active | Not Active | Not Active | Not Active | Not Active | Not Active | Not Active | Not Active |  |  |  | 
Cc1[nH]c(=O)c(C#N)cc1-c1ccncc1 [MILRINONE] | Not Active | Not Active | Not Active | Not Active | Not Active | Not Active | Not Active | Not Active | Not Active | Not Active |  |  |  | 
O=[As][O-].[Na+] [SODIUM ARSENITE] | Not Active | Not Active | Not Active | Not Active | Not Active | Not Active | Not Active | Not Active | Not Active | Not Active |  |  |  | 
COC(=O)Nc1nc2ccc(C(=O)c3ccccc3)cc2[nH]1 [MEBENDAZOLE] | Not Active | Not Active | Not Active | Not Active | Not Active | Not Active | Not Active | Not Active | Not Active | Not Active |  |  |  | 
CCOC(=O)C1=C(C)NC(C)=C(C(=O)OCC)C1c1ccccc1/C=C/C(=O)OC(C)(C)C [LACIDIPINE] | Not Active | Not Active | Not Active | Not Active | Not Active | Not Active | Not Active | Not Active | Not Active | Not Active |  |  |  | 
O=C(OC[C@H]1O[C@@H](OC(=O)c2cc(O)c(O)c(OC(=O)c3cc(O)c(O)c(O)c3)c2)[C@H](OC(=O)c2cc(O)c(O)c(OC(=O)c3cc(O)c(O)c(O)c3)c2)[C@@H](OC(=O)c2cc(O)c(O)c(OC(=O)c3cc(O)c(O)c(O)c3)c2)[C@@H]1OC(=O)c1cc(O)c(O)c(OC(=O)c2cc(O)c(O)c(O)c2)c1)c1cc(O)c(O)c(OC(=O)c2cc(O)c(O)c(O)c2)c1 [TANNIC ACID] | Not Active | Not Active | Not Active | Not Active | Not Active |  | Not Active | Not Active |  | Not Active |  |  | 346 | 4700
CC#C[C@]1(O)CC[C@H]2[C@@H]3CCC4=CC(=O)CCC4=C3[C@@H](c3ccc(N(C)C)cc3)C[C@@]21C [MIFEPRISTONE] | Not Active | Not Active | Not Active | Not Active | Not Active | Not Active | Not Active | Not Active | Not Active | Not Active |  |  |  | 
CC(O)C(=O)O (stereo not given) [LACTIC ACID] | Not Active | Not Active | Not Active | Not Active | Not Active | Not Active | Not Active | Not Active | Not Active | Not Active |  |  |  | 
Cc1ccnc(NS(=O)(=O)c2ccc(N)cc2)n1 [SULFAMERAZINE] | Not Active | Not Active | Not Active | Not Active | Not Active | Not Active | Not Active | Not Active | Not Active | Not Active |  |  |  | 
CC(C)(C)NC[C@H](O)COc1cccc2c1CCCC2=O [LEVOBUNOLOL] | Not Active | Not Active | Not Active | Not Active | Not Active | Not Active | Not Active | Not Active | Not Active | Not Active |  |  |  | 
CCOc1cc(N)c(Cl)cc1C(=O)NCC1CN(Cc2ccc(F)cc2)CCO1 (stereo not given) [MOSAPRIDE] | Not Active | Not Active | Not Active | Not Active | Not Active | Not Active | Not Active | Not Active | Not Active | Not Active |  |  |  | 
CC(=O)O[C@]1(C(C)=O)CC[C@H]2[C@@H]3C[C@H](C)C4=CC(=O)CC[C@]4(C)[C@H]3CC[C@@]21C [MEDROXYPROGESTERONE ACETATE] | Not Active | Not Active | Not Active | Not Active | Not Active | Not Active | Not Active | Not Active | Not Active | Not Active |  |  |  | 
OC[C@@H](O)[C@@H](O)[C@H](O)[C@H](O)CO [MANNITOL] | Not Active | Not Active | Not Active | Not Active | Not Active | Not Active | Not Active | Not Active | Not Active | Not Active |  |  |  | 
